From patent publication US20060013769A1, “Transdermal drug delivery formulations and method of determining optimal amounts of vasodilators therein” (priority 2004, published 2006)

Assays:
Format in all cases: in vivo
[1] = Topical ibuprofen vehicle with tocopherol nicotinate applied to rabbits, ibuprofen in plasma over three hours
Method: (§1) Test formulations containing 15% ibuprofen-sodium salt, 5% oleic acid, 10% menthol, 5% propylene glycol, 10% dimethylacetamide, 1% decylmethylsulfoxide, 1% u-care, varying amounts of tocopherol nicotinate in the range of 0-1%, and 52-53% deionized water were each blended in a beaker with a mechanical mixer and heated to 40° C. for 30 minutes until clear, then cooled to room temperature.
(§2) 150 mg of sodium salt-ibuprofen was formulated with a 1-gram dose of the above lipid-based vehicle formulations containing the increasing amounts of the vasodilator tocopherol nicotinate. The Ibuprofen vehicle was topically applied to rabbits and blood samples were taken over a three-hour period. Plasma was prepared and analyzed for the amount of ibuprofen present in the blood. The data represents the integrated value of ibuprofen concentration in the blood for the three hour time period for each concentration of tocopherol nicotinate.

[2] = Topical ibuprofen vehicle with papaverine applied to rabbits, ibuprofen in plasma over three hours
Method: as §1, with “papaverine ranging from” for “tocopherol nicotinate in the range of”
as §2, with “with” for “with a 1-gram dose of”, “formulatiosn” for “formulations”, “containing” for “containing the”, “papaverine.” for “tocopherol nicotinate.”

[3] = Topical ibuprofen vehicle with tolazoline applied to rabbits, ibuprofen in plasma over three hours
Method: as §1, with “tolazoline ranging from 0-0.1%,” for “tocopherol nicotinate in the range of 0-1%,”, “52.9-53%” for “52-53%”
as §2, with “with” for “with a 1-gram dose of”, “formulatiosn” for “formulations”, “containing” for “containing the”, “tolazoline.” for “tocopherol nicotinate.”

[4] = test system: blood flow; test: Maximal blood flow stimulated by vasodilator, laser Doppler perfusion imager
Method: Maximal blood flow stimulated by the vasodilator tolazoline was measured using a laser Doppler perfusion imager.

## CC(C)Cc1ccc(C(C)C(=O)O)cc1 (centres unmarked) [Ibuprofen, ibuprofen]
[1]; 0.00010% tocopherol nicotinate in vehicle
  integrated value of ibuprofen concentration in the blood (0-3 hr): 3980 ng·h/mL
[1]; 0.00025% tocopherol nicotinate in vehicle
  integrated value of ibuprofen concentration in the blood (0-3 hr): 9480 ng·h/mL
[1]; 0.00050% tocopherol nicotinate in vehicle
  integrated value of ibuprofen concentration in the blood (0-3 hr): 3120 ng·h/mL
[1]; 0.0010% tocopherol nicotinate in vehicle
  integrated value of ibuprofen concentration in the blood (0-3 hr): 5080 ng·h/mL
[1]; 0.0100% tocopherol nicotinate in vehicle
  integrated value of ibuprofen concentration in the blood (0-3 hr): 5840 ng·h/mL
[1]; 0.100% tocopherol nicotinate in vehicle
  integrated value of ibuprofen concentration in the blood (0-3 hr): 4300 ng·h/mL
[1]; 1.000% tocopherol nicotinate in vehicle
  integrated value of ibuprofen concentration in the blood (0-3 hr): 4400 ng·h/mL
[1]; Control (no tocopherol nicotinate), 150 mg sodium salt-ibuprofen in 1 g vehicle
  integrated value of ibuprofen concentration in the blood (0-3 hr): 1030 ng·h/mL
[2]; 0.00010% papaverine in vehicle
  integrated value of ibuprofen concentration in the blood (0-3 hr): 5120 ng·h/mL
[2]; 0.00025% papaverine in vehicle
  integrated value of ibuprofen concentration in the blood (0-3 hr): 4470 ng·h/mL
[2]; 0.00050% papaverine in vehicle
  integrated value of ibuprofen concentration in the blood (0-3 hr): 8370 ng·h/mL
[2]; 0.0010% papaverine in vehicle
  integrated value of ibuprofen concentration in the blood (0-3 hr): 7620 ng·h/mL
[2]; 0.0100% papaverine in vehicle
  integrated value of ibuprofen concentration in the blood (0-3 hr): 5720 ng·h/mL
[2]; 0.100% papaverine in vehicle
  integrated value of ibuprofen concentration in the blood (0-3 hr): 4230 ng·h/mL
[2]; 1.000% papaverine in vehicle
  integrated value of ibuprofen concentration in the blood (0-3 hr): 6160 ng·h/mL
[2]; Control (no papaverine), 150 mg sodium salt-ibuprofen in vehicle
  integrated value of ibuprofen concentration in the blood (0-3 hr): 1030 ng·h/mL
[3]; 0.0010% tolazoline in vehicle
  integrated value of ibuprofen concentration in the blood (0-3 hr): 3900 ng·h/mL
[3]; 0.0050% tolazoline in vehicle
  integrated value of ibuprofen concentration in the blood (0-3 hr): 5240 ng·h/mL
[3]; 0.0100% tolazoline in vehicle
  integrated value of ibuprofen concentration in the blood (0-3 hr): 5660 ng·h/mL
[3]; 0.0500% tolazoline in vehicle
  integrated value of ibuprofen concentration in the blood (0-3 hr): 3530 ng·h/mL
[3]; 0.100% tolazoline in vehicle
  integrated value of ibuprofen concentration in the blood (0-3 hr): 4530 ng·h/mL
[3]; Control (no tolazoline), 150 mg sodium salt-ibuprofen in vehicle
  integrated value of ibuprofen concentration in the blood (0-3 hr): 1030 ng·h/mL

## c1ccc(CC2=NCCN2)cc1 [tolazoline]
[4]
  concentration at which the maximum blood flow was achieved: 0.5%
